Source: ChEMBL document CHEMBL4359846, “Design, synthesis, and antifibrosis evaluation of 4-(benzo-[c][1,2,5]thiadiazol-5-yl)-3(5)-(6-methyl- pyridin-2-yl)pyrazole and 3(5)-(6-methylpyridin- 2-yl)-4-(thieno-[3,2,-c]pyridin-2-yl)pyrazole derivatives” (Eur J Med Chem, 2019)

Columns and labels:
[1] = target: T1, Mitogen-activated protein kinase 14 (Homo sapiens, UniProt Q16539); assay: Inhibition of human recombinant untagged p38alpha expressed in Escherichia coli at 10 uM using ATF2 as substrate incubated for 60 mins in presence of [33P]-ATP by radiometric assay relative to control
T1 sequence (Q16539 whole entry): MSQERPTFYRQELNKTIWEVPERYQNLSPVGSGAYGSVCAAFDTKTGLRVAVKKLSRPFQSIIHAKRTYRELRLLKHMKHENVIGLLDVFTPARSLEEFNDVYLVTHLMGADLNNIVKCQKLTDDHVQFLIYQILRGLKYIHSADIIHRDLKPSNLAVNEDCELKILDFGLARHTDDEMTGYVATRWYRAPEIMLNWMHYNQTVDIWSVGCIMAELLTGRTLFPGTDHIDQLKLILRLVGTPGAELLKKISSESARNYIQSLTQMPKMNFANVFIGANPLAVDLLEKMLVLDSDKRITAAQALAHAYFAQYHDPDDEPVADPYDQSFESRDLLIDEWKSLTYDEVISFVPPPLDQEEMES

[2] = Cytotoxicity against human LX2 cells assessed as reduction in cell viability at 4 to 100 uM incubated for 3 hrs by MTT assay; format: cell-based
[3] = target: T2, TGF-beta receptor type-1 (Homo sapiens, UniProt P36897); assay: Inhibition of human recombinant GST-tagged ALK5 expressed in Sf9 insect cells using casein as substrate incubated for 60 mins in presence of [33P]-ATP by radiometric assay
T2 sequence (P36897 whole entry): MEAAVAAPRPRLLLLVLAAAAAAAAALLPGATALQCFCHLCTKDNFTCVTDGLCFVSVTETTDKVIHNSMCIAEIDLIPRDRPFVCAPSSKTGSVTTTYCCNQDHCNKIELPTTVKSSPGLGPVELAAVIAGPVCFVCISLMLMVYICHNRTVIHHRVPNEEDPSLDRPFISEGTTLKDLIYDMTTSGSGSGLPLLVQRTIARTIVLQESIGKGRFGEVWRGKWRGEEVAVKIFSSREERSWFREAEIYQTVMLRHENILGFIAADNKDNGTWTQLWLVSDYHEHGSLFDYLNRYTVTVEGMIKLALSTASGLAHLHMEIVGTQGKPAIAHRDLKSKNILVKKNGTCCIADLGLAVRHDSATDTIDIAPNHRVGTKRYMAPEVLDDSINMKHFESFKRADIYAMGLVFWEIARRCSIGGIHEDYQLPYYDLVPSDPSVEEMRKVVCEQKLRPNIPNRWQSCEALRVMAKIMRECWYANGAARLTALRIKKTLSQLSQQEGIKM

[4] = target: T1, Mitogen-activated protein kinase 14; assay: Inhibition of human recombinant untagged p38alpha expressed in Escherichia coli using ATF2 as substrate incubated for 60 mins in presence of [33P]-ATP by radiometric assay
[5] = target: T3, TGF-beta receptor type-1 (Homo sapiens) (UniProt P36897); assay: Inhibition of human recombinant GST-tagged ALK5 expressed in Sf9 insect cells at 10 uM using casein as substrate incubated for 60 mins in presence of [33P]-ATP by radiometric assay relative to control
T3 sequence (whole entry): T2 sequence (P36897 whole entry)

| Structure (SMILES) | inhibition [1] [%] | Activity [2] | IC50 [3] [nM] | IC50 [4] [nM] | inhibition [5] [%] |
| --- | --- | --- | --- | --- | --- |
| Cc1cccc(-c2nn(CC(=O)Nc3ccccc3)cc2-c2cc3cnccc3s2)n1 | 0 to 66 | Non-Toxic | 39 | 8120 |  |
| Cc1cccc(-c2nn(CC(=O)Nc3cccc(C#N)c3)cc2-c2cc3cnccc3s2)n1 | 0 to 66 |  | 230 | > 10000 | 98 to 100 |
| Cc1cccc(-c2nn(CC(=O)Nc3ccccc3F)cc2-c2ccc3nsnc3c2)n1 | 0 to 66 |  | 168 | > 10000 | 98 to 99 |
| Cc1cccc(-c2c(-c3cc4cnccc4s3)cnn2CC(=O)Nc2ccccc2F)n1 | 0 to 66 |  |  |  | 46 to 91 |
| Cc1cccc(-c2nn(CC(=O)Nc3cccc(F)c3)cc2-c2cc3cnccc3s2)n1 | 0 to 66 |  | 119 | > 10000 | 98 to 100 |
| Cc1cccc(-c2nn(CC(=S)Nc3ccccc3F)cc2-c2ccc3nsnc3c2)n1 | 0 to 66 |  | 55 | 3800 |  |
| Cc1cccc(-c2nn(CC(=O)Nc3ccccc3)cc2-c2ccc3nsnc3c2)n1 | 0 to 66 |  | 30 | > 10000 | 98 to 99 |
| Cc1cccc(-c2c(-c3ccc4nsnc4c3)cnn2CC(=O)Nc2ccccc2)n1 | 0 to 66 |  |  |  | 52 to 98 |
| Cc1cccc(-c2c(-c3cc4cnccc4s3)cnn2CC(=O)Nc2cccc(C#N)c2)n1 | 0 to 66 |  |  |  | 46 to 91 |
| Cc1cccc(-c2nn(CC(=S)Nc3cccc(F)c3)cc2-c2ccc3nsnc3c2)n1 | 0 to 66 | Toxic | 30 | 7040 |  |
| Cc1cccc(-c2nn(CC(=O)Nc3ccccc3F)cc2-c2cc3cnccc3s2)n1 | 0 to 66 |  | 312 | > 10000 | 98 to 100 |
| Cc1cccc(-c2c(-c3cc4cnccc4s3)cnn2CC(=O)Nc2ccccc2)n1 | 0 to 66 |  |  |  | 46 to 91 |
| Cc1cccc(-c2c(-c3ccc4nsnc4c3)cnn2CC(=O)Nc2cccc(C#N)c2)n1 | 0 to 66 |  |  |  | 52 to 98 |
| Cc1cccc(-c2nn(CC(=O)Nc3cccc(F)c3)cc2-c2ccc3nsnc3c2)n1 | 0 to 66 |  | 87 | > 10000 | 98 to 99 |
| Cc1cccc(-c2c(-c3ccc4nsnc4c3)cnn2CC(=O)Nc2ccccc2F)n1 | 0 to 66 |  |  |  | 52 to 98 |
| Cc1cccc(-c2nn(CC(=O)Nc3cccc(C#N)c3)cc2-c2ccc3nsnc3c2)n1 | 0 to 66 |  | 165 | > 10000 | 98 to 99 |
| Cc1cccc(-c2nn(CC(=S)Nc3ccccc3)cc2-c2ccc3nsnc3c2)n1 | 0 to 66 |  | 42 | 5800 |  |
| Cc1cccc(-c2nn(CC(=S)Nc3cccc(C#N)c3)cc2-c2cc3cnccc3s2)n1 | 0 to 66 |  | 78 | 9460 |  |
| Cc1cccc(-c2c(-c3ccc4nsnc4c3)cnn2CC(=O)Nc2cccc(F)c2)n1 | 0 to 66 |  |  |  | 52 to 98 |
| Cc1cccc(-c2nn(CC(=S)Nc3cccc(F)c3)cc2-c2cc3cnccc3s2)n1 | 0 to 66 |  | 125 | > 10000 |  |
| Cc1cccc(-c2c(-c3cc4cnccc4s3)cnn2CC(=O)Nc2cccc(F)c2)n1 | 0 to 66 |  |  |  | 46 to 91 |
| Cc1cccc(-c2nn(CC(=S)Nc3cccc(C#N)c3)cc2-c2ccc3nsnc3c2)n1 | 0 to 66 |  | 116 | > 10000 |  |
